Experimental data: patent US9409952B2, “Peptide-compound cyclization method” (Chugai Seiyaku Kabushiki Kaisha, priority 2011, dated 2016)
Like-named read-outs stand apart in the source and are kept apart here. Starred links: 1 amine or outer side, 2 acyl side, 3 side chain; linkers in the order of their positions; H or OH if unused. Positions of bridges follow the written chain, without caps; N, C: chain ends. Non-standard residues stand in square brackets, D forms with d. Residues, ends and D or L forms follow the SMILES beside them. ξ: configuration not given here. *: point of attachment. NMeF = CN[C@@H](Cc1ccccc1)C(=O)O; NMeI = CC[C@H](C)[C@H](NC)C(=O)O; NMeβAla = CN(CCC(=O)[*:2])[*:1]; NMeL = CN[C@@H](CC(C)C)C(=O)O; Thr(3ξ) = CC(O)[C@H](N)C(=O)O; NMeV = CN[C@H](C(=O)O)C(C)C; NMeA = CN[C@@H](C)C(=O)O; Piperidide = C1CCN(*)CC1; dNMeA = CN[C@H](C)C(=O)O; Sar = CNCC(=O)O; tBu = CC(C)(C)*

Key:
[1] = PAMPA (parallel artificial membrane permeability assay); format: in vitro ADME; details: for Papp at 18 hours, 50 µM: PAMPA
Procedure, shortened: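 Artificial membrane was 10% (w/v) egg lecithin plus 0.5% (w/v) cholesterol in dodecane on a PVDF filter. A 10 mM DMSO stock was added at 0.5% (v/v) to donor buffer (50 mM MOPSO, pH 6.5, 5.0% glycocholic acid). After 18 h at 37 °C, LC/MS or LC/UV gave donor and acceptor levels for Pe.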

[2] = Metabolic stability in human hepatic microsome; format: in vitro ADME; details: microsomes
[3] = membrane permeation rate (Pe), 50 mM MOPSO buffer pH 6.5 with 5.0% glycocholic acid, 37° C., 18 hours, read-out: iPAMPA Pe
[4] = pH 7.4, human hepatic microsome, NADPH(+), read-out: CL NADPH(+)

Structure (SMILES) | Papp at 18 hours, 50 µM [1, 3] [×10⁻⁶ cm/s] | microsomal CLint at 1 uM [2, 4] [µL/min/mg] | Papp at 18 hours, 50 µM ([1]; pH 6.5) [×10⁻⁶ cm/s] | microsomal CLint at 1 uM ([2]; human, pH 7.4, CL NADPH(+)) [µL/min/mg] | iPAMPA Pe ([1]; membrane permeation rate (Pe), 50 mM MOPSO buffer pH 6.5 with 5.0% glycocholic acid, 37° C., 18 hours)
CC(C)C[C@H]1C(=O)N(C)[C@@H](Cc2ccccc2)C(=O)N(C)[C@@H](CC(C)C)C(=O)N[C@@H](Cc2ccccc2)C(=O)N[C@@H]([C@@H](C)O)C(=O)N(C)[C@@H](C)C(=O)N[C@H](C(=O)N2CCCCC2)CC(=O)N(C)CCC(=O)N[C@@H](C)C(=O)N1C [DP-153] ([NMeβAla]A[NMeL][NMeF][NMeL]FT[NMeA]D-Piperidide; lactam N-9) | 26 | 179 |  |  | 
CC[C@H](C)[C@H]1C(=O)N[C@H](C(=O)N2CCCCC2)CC(=O)N(C)CCC(=O)N(C)[C@@H](Cc2ccccc2)C(=O)N(C)[C@@H](CC(C)C)C(=O)N[C@@H]([C@@H](C)O)C(=O)N(C)CC(=O)N(C)[C@@H](CC(C)C)C(=O)N[C@@H](COC(C)(C)C)C(=O)N1C [DP-155] ([NMeβAla][NMeF][NMeL]T[Sar][NMeL]S(tBu)[NMeI]D-Piperidide; lactam N-9) |  |  | 55 | 101 | 
CC(C)C[C@H]1C(=O)N(C)[C@@H](Cc2ccccc2)C(=O)N[C@@H](Cc2ccccc2)C(=O)N(C)[C@@H](CC(C)C)C(=O)N[C@@H]([C@@H](C)O)C(=O)N(C)[C@@H](C)C(=O)N[C@H](C(=O)N2CCCCC2)CC(=O)N(C)[C@H](C)C(=O)N[C@@H](C)C(=O)N1C [DP-157] ([dNMeA]A[NMeL][NMeF]F[NMeL]T[NMeA]D-Piperidide; lactam N-9) | 27 | 368 |  |  | 
CC(C)C[C@H]1C(=O)N(C)[C@@H](Cc2ccccc2)C(=O)N(C)[C@@H](Cc2ccccc2)C(=O)N[C@@H]([C@@H](C)O)C(=O)N(C)[C@@H](C)C(=O)N(C)[C@@H](CC(C)C)C(=O)N[C@H](C(=O)N2CCCCC2)CC(=O)N(C)[C@@H](C)C(=O)N(C)[C@@H](CC(C)C)C(=O)N(C)[C@@H](CC(C)C)C(=O)N[C@@H](C)C(=O)N1C [DP-158] ([NMeA][NMeL][NMeL]A[NMeL][NMeF][NMeF]T[NMeA][NMeL]D-Piperidide; lactam N-11) | 49 | 41 |  |  | 
CC[C@H](C)[C@@H]1NC(=O)CCN(C)C(=O)C[C@@H](C(=O)N2CCCCC2)NC(=O)[C@H](Cc2ccccc2)N(C)C(=O)[C@H](CC(C)C)N(C)C(=O)[C@H](C)N(C)C(=O)[C@H](Cc2ccccc2)N(C)C(=O)[C@H]([C@@H](C)O)NC(=O)[C@H](CC(C)C)N(C)C(=O)[C@H](C)N(C)C(=O)[C@H](CC(C)C)N(C)C1=O [DP-159] ([NMeβAla]I[NMeL][NMeA][NMeL]T[NMeF][NMeA][NMeL][NMeF]D-Piperidide; lactam N-11) | 39 | 54 |  |  | 
CC(C)C[C@H]1C(=O)N[C@@H](COC(C)(C)C)C(=O)N[C@H](C(=O)N2CCCCC2)CC(=O)N(C)[C@H](C)C(=O)N(C)[C@@H](C)C(=O)N(C)[C@@H](Cc2ccccc2)C(=O)N(C)[C@@H](CC(C)C)C(=O)N[C@@H]([C@@H](C)O)C(=O)N(C)[C@@H](C)C(=O)N1C [DP-160] ([dNMeA][NMeA][NMeF][NMeL]T[NMeA][NMeL]S(tBu)D-Piperidide; lactam N-9) | 37 | 68 |  |  | 
CC(C)C[C@H]1C(=O)N[C@@H](Cc2ccccc2)C(=O)N[C@@H]([C@@H](C)O)C(=O)N(C)[C@@H](C)C(=O)N[C@H](C(=O)N2CCCCC2)CC(=O)N(C)CC(=O)N[C@@H](C)C(=O)N(C)[C@@H](Cc2ccccc2)C(=O)N(C)[C@@H](CC(C)C)C(=O)N1C [DP-161] ([Sar]A[NMeF][NMeL][NMeL]FT[NMeA]D-Piperidide; lactam N-9) | 26 | 194 |  |  | 
CC[C@H](C)[C@@H]1NC(=O)[C@H](CC(C)C)N(C)C(=O)[C@H](Cc2ccccc2)NC(=O)[C@@H](C)N(C)C(=O)C[C@@H](C(=O)N2CCCCC2)NC(=O)[C@H](Cc2ccccc2)NC(=O)[C@H](C(C)O)NC(=O)[C@@H]2CCCN2C(=O)[C@H](CC(C)C)N(C)C(=O)CNC(=O)[C@H](CC(C)C)N(C)C1=O (some centres unmarked) [DP-162] ([dNMeA]F[NMeL]I[NMeL]G[NMeL]P[Thr(3ξ)]FD-Piperidide; lactam N-11) | 35 | 90 |  |  | 
CC(C)C[C@H]1C(=O)N[C@@H](COC(C)(C)C)C(=O)N[C@H](C(=O)N2CCCCC2)CC(=O)N(C)CC(=O)N(C)[C@@H](Cc2ccccc2)C(=O)N(C)[C@@H](C)C(=O)N(C)[C@@H](CC(C)C)C(=O)N[C@@H]([C@@H](C)O)C(=O)N(C)[C@@H](C)C(=O)N1C [DP-163] ([Sar][NMeF][NMeA][NMeL]T[NMeA][NMeL]S(tBu)D-Piperidide; lactam N-9) | 23 | 68 |  |  | 
CC[C@H](C)[C@@H]1NC(=O)[C@H](Cc2ccccc2)N(C)C(=O)[C@H](C)N(C)C(=O)[C@H]([C@@H](C)O)NC(=O)[C@@H](C)N(C)C(=O)C[C@@H](C(=O)N2CCCCC2)NC(=O)[C@H](CC(C)C)N(C)C(=O)[C@H](C)N(C)C(=O)[C@H](Cc2ccccc2)NC(=O)[C@H](C(C)C)N(C)C(=O)[C@@H]2CCCN2C1=O [DP-164] ([dNMeA]T[NMeA][NMeF]IP[NMeV]F[NMeA][NMeL]D-Piperidide; lactam N-11) |  |  | 30 | 253 | 
CC(C)C[C@@H]1NC(=O)[C@H](CC(C)C)N(C)C(=O)[C@H](C)N(C)C(=O)[C@@H](C)N(C)C(=O)C[C@@H](C(=O)N2CCCCC2)NC(=O)[C@H]([C@@H](C)O)NC(=O)CN(C)C(=O)[C@H](Cc2ccccc2)NC(=O)[C@H](CC(C)C)N(C)C(=O)[C@H](C(C)C)N(C)C(=O)[C@H](Cc2ccccc2)N(C)C1=O [DP-165] ([dNMeA][NMeA][NMeL]L[NMeF][NMeV][NMeL]F[Sar]TD-Piperidide; lactam N-11) | 56 | 42 |  |  | 
CC(C)C[C@@H]1NC(=O)[C@H](CC(C)C)N(C)C(=O)[C@H](C)NC(=O)[C@H](C)N(C)C(=O)[C@H]([C@@H](C)O)NC(=O)CN(C)C(=O)[C@H](C(C)C)N(C)C(=O)[C@H](CC(C)C)N(C)C(=O)[C@H](Cc2ccccc2)NC(=O)CN(C)C(=O)C[C@@H](C(=O)N2CCCCC2)NC1=O [DP-167] ([Sar]F[NMeL][NMeV][Sar]T[NMeA]A[NMeL]LD-Piperidide; lactam N-11) | 9.5 | 75 |  |  | 
CC[C@H](C)[C@@H]1NC(=O)[C@H](Cc2ccccc2)N(C)C(=O)CN(C)C(=O)C[C@@H](C(=O)N2CCCCC2)NC(=O)[C@H](C(C)C)N(C)C(=O)[C@H](COC(C)(C)C)NC(=O)[C@H](CC(C)C)N(C)C(=O)[C@H](Cc2ccccc2)N(C)C(=O)CN(C)C(=O)[C@H]([C@@H](C)O)NC(=O)[C@H](CC(C)C)N(C)C1=O [DP-168] ([Sar][NMeF]I[NMeL]T[Sar][NMeF][NMeL]S(tBu)[NMeV]D-Piperidide; lactam N-11) | 23 | 85 |  |  | 
CC(C)C[C@@H]1NC(=O)[C@H]([C@@H](C)O)NC(=O)[C@H](Cc2ccccc2)N(C)C(=O)[C@H](CC(C)C)N(C)C(=O)[C@H](Cc2ccccc2)N(C)C(=O)[C@H](C)N(C)C(=O)[C@H](C)N(C)C(=O)[C@H](CC(C)C)N(C)C(=O)[C@@H](C)NC(=O)C[C@@H](C(=O)N2CCCCC2)NC1=O [DP-169] ([dA][NMeL][NMeA][NMeA][NMeF][NMeL][NMeF]TLD-Piperidide; lactam N-10) | 36 | 43 |  |  | 
CC(C)C[C@H]1C(=O)N[C@@H](COC(C)(C)C)C(=O)N(C)[C@@H](CC(C)C)C(=O)N[C@H](C(=O)N2CCCCC2)CC(=O)N[C@H](C)C(=O)N(C)[C@@H](C)C(=O)N(C)[C@@H](Cc2ccccc2)C(=O)N(C)[C@@H](CC(C)C)C(=O)N[C@@H]([C@@H](C)O)C(=O)N(C)CC(=O)N1C [DP-170] ([dA][NMeA][NMeF][NMeL]T[Sar][NMeL]S(tBu)[NMeL]D-Piperidide; lactam N-10) | 43 | 22 |  |  | 
CC(C)C[C@H]1C(=O)N(C)[C@@H](C(C)C)C(=O)N[C@@H](Cc2ccccc2)C(=O)N[C@H](C(=O)N2CCCCC2)CC(=O)N[C@H](C(C)C)C(=O)N[C@@H](COC(C)(C)C)C(=O)N(C)[C@@H](CC(C)C)C(=O)N[C@@H]([C@@H](C)O)C(=O)N(C)[C@@H](Cc2ccccc2)C(=O)NCC(=O)N1C [DP-171] ([dV]S(tBu)[NMeL]T[NMeF]G[NMeL][NMeV]FD-Piperidide; lactam N-10) | 50 | 191 |  |  | 
CC[C@H](C)[C@@H]1NC(=O)[C@H]([C@@H](C)O)NC(=O)[C@H](C)N(C)C(=O)[C@H](CC(C)C)N(C)C(=O)[C@H](Cc2ccccc2)N(C)C(=O)[C@H](Cc2ccccc2)N(C)C(=O)[C@H](C)N(C)C(=O)[C@H](CC(C)C)N(C)C(=O)[C@@H](C(C)C)NC(=O)C[C@@H](C(=O)N2CCCCC2)NC1=O [DP-172] ([dV][NMeL][NMeA][NMeF][NMeF][NMeL][NMeA]TID-Piperidide; lactam N-10) |  | 25 |  |  | 7.0E−05
CC[C@H](C)[C@@H]1NC(=O)[C@H](CC(C)C)N(C)C(=O)[C@H](C)NC(=O)[C@H](C)N(C)C(=O)C[C@@H](C(=O)N2CCCCC2)NC(=O)[C@H](C(C)C)N(C)C(=O)[C@H](Cc2ccccc2)N(C)C(=O)[C@H]([C@@H](C)O)NC(=O)[C@H](CC(C)C)N(C)C(=O)[C@H](Cc2ccccc2)NC1=O [DP-173] ([NMeA]A[NMeL]IF[NMeL]T[NMeF][NMeV]D-Piperidide; lactam N-10) | 58 | 251 |  |  | 
CC(C)C[C@H]1C(=O)N(C)[C@@H](CC(C)C)C(=O)N(C)[C@@H](CC(C)C)C(=O)N[C@H](C(=O)N2CCCCC2)CC(=O)N(C)CCC(=O)N[C@@H]([C@@H](C)O)C(=O)N(C)[C@@H](C)C(=O)N(C)[C@@H](Cc2ccccc2)C(=O)N(C)[C@@H](Cc2ccccc2)C(=O)NCC(=O)N1C [DP-174] ([NMeβAla]T[NMeA][NMeF][NMeF]G[NMeL][NMeL][NMeL]D-Piperidide; lactam N-10) | 22 | 66 |  |  | 
